Assay results published in ChEMBL document CHEMBL6071198, “Advances in Cancer Treatment and Monitoring: Insights from KRAS Inhibitors and Germline Epitope Burden Monitoring” (ACS Med Chem Lett, 2024).

Legend:
GTPase KRas/RAF1 = GTPase KRas/RAF1 (Homo sapiens, UniProt P01116); experiment: Inhibition of biotinylated wild type KRAS (1 to 169 residues) (unknown origin)/CRAF RBD (unknown origin) protein-protein interaction preincubated for 60 mins followed by SOS1 and GTPgs addition measured after 60 mins by FRET assay
[1] = Inhibition of biotinylated KRAS G12D mutant (unknown origin)/CRAF RBD (unknown origin) protein-protein interaction preincubated for 60 mins followed by SOS1 and GTPgs addition measured after 60 mins by FRET assay; set-up: species or system Homo sapiens

SMILES	IC50 (GTPase KRas/RAF1)	IC50 [1]
C[C@H](NC(=O)[C@H]1C[C@@H](O)CN1C(=O)[C@@H](NC(=O)CCOCCCN1CCC[C@H]1COc1nc(N2CC3CCC(C2)N3)c2cc(C(F)(F)F)c(-c3ccc(F)c4sc(N)c(C#N)c34)c(F)c2n1)C(C)(C)C)c1ccc(-c2c(F)cccc2F)cc1	0.0269 µM	0.00852 µM
Cc1ncsc1-c1ccc([C@H](C)NC(=O)[C@H]2C[C@@H](O)CN2C(=O)[C@@H](NC(=O)CCOCCCN2CCC[C@H]2COc2nc(N3CC4CCC(C3)N4)c3cnc(-c4cc(O)cc5cccc(F)c45)c(F)c3n2)C(C)(C)C)cc1	0.158 µM	0.00821 µM
Cc1ncsc1-c1ccc([C@H](C)NC(=O)[C@H]2C[C@@H](O)CN2C(=O)[C@@H](NC(=O)CCOCCCN2CCC[C@H]2COc2nc(N3CC4CCC(C3)N4)c3cc(Cl)c(-c4ccc(F)c5sc(N)c(C#N)c45)c(F)c3n2)C(C)(C)C)cc1	0.0259 µM	0.00818 µM
C[C@H](NC(=O)[C@H]1C[C@@H](O)CN1C(=O)[C@@H](NC(=O)CCOCCCN1CCC[C@H]1COc1nc(N2CC3CCC(C2)N3)c2cc(Cl)c(-c3ccc(F)c4sc(N)c(C#N)c34)c(F)c2n1)C(C)(C)C)c1ccc(-c2c(F)cccc2F)cc1	0.0777 µM	0.00767 µM
C#Cc1c(F)ccc2cc(O)cc(-c3ncc4c(N5CC6CCC(C5)N6)nc(OC[C@@H]5CCCN5CCCOCCC(=O)N[C@H](C(=O)N5C[C@H](O)C[C@@H]5C(=O)N[C@@H](C)c5ccc(-c6c(F)cccc6F)cc5)C(C)(C)C)nc4c3F)c12	0.0419 µM	0.0094 µM
C#Cc1c(F)ccc2cc(O)cc(-c3ncc4c(N5CC6CCC(C5)N6)nc(OC[C@@H]5CCCN5CCCOCCC(=O)N[C@H](C(=O)N5C[C@H](O)C[C@@H]5C(=O)N[C@@H](C)c5ccc(-c6ccncc6C#N)cc5)C(C)(C)C)nc4c3F)c12	0.0242 µM	0.00793 µM
